Measurements published in patent publication US7741485B2, “Benzenesulphonamide derivatives as herbicides or desiccant/defoliant compounds” (BASF Aktiengesellschaft, priority 2003, dated 2010).
Values belong to the molecule of their own block, whether it stands above or below them.

How the values were obtained:
Bengal commelina = test: greenhouse herbicidal test, post-emergence treatment; assay type: in vivo; settings: application rates of 15.63 g/ha
From the text: (§1) The seeds of the test plants were sown separately for each species. For the post-emergence treatment, the test plants were first grown to a height of 3 to 15 cm, depending on the plant form, and only then treated with the active compounds, emulsified or suspended in water. The test plants were for this purpose either sown directly and grown in the same containers, or they were first grown separately as seedlings and transplanted into the test containers a few days prior to treatment. The application rate for the pre- and post-emergence treatment was from 62.5 to 3.1 g of a.s./ha. Depending on the species, the plants were kept at 10-25° C. or 20-35° C. The test period extended over 2 to 4 weeks. During this time, the plants were tended, and their response to the individual treatments was evaluated. Evaluation was carried out using a scale from 0 to 100. 100 means no emergence of the plants, or complete destruction of at least the above-ground parts, and 0 means no damage, or normal course of growth. The plants used in the greenhouse experiments were composed of the following species: [table]

velvet leaf [1] = test: as above; assay type: in vivo; settings: application rates of 15.63 g/ha
From the text: as §1

common lambsquarters [2] = test: as above; assay type: in vivo
From the text: as §1

pigweed [3] = test: as above; assay type: in vivo
From the text: as §1

common morning glory [4] = test: as above; assay type: in vivo
From the text: as §1

pigweed [5] = test: greenhouse herbicidal test, pre-emergence treatment; assay type: in vivo; settings: for pre-emergence activity against pigweed: application rates of 12.5 and 6.2 g/ha; for control of pigweed, pre-emergence method: application rates of 6.2 and 3.1 g/ha
From the text: (§2) The seeds of the test plants were sown separately for each species. For the pre-emergence treatment, the active compounds, emulsified or suspended in water, were applied directly after sowing by means of finely distributing nozzles. The containers were irrigated gently to promote germination and growth and subsequently covered with transparent plastic hoods until the plants had rooted. This cover caused uniform germination of the test plants, unless this was adversely affected by the active compounds. The application rate for the pre- and post-emergence treatment was from 62.5 to 3.1 g of a.s./ha. Depending on the species, the plants were kept at 10-25° C. or 20-35° C. The test period extended over 2 to 4 weeks. During this time, the plants were tended, and their response to the individual treatments was evaluated. Evaluation was carried out using a scale from 0 to 100. 100 means no emergence of the plants, or complete destruction of at least the above-ground parts, and 0 means no damage, or normal course of growth. The plants used in the greenhouse experiments were composed of the following species: [table]

common lambsquarters [6] = test: as above; assay type: in vivo; settings: for pre-emergence activity against common lambsquarters: application rates of 12.5 and 6.2 g/ha; for control of common lambsquarters, pre-emergence method: application rates of 6.2 and 3.1 g/ha
From the text: as §2

common morning glory [7] = test: as above; assay type: in vivo; settings: for pre-emergence activity against common morning glory: application rates of 12.5 and 6.2 g/ha; for control of morning glory, pre-emergence method: application rates of 6.2 and 3.1 g/ha
From the text: as §2

wild buckwheat = test: as above; assay type: in vivo; settings: application rates of 12.5 and 6.2 g/ha
From the text: as §2

ladysthumb = test: greenhouse herbicidal test, post-emergence treatment; assay type: in vivo; settings: for post-emergence activity against ladysthumb: application rates of 15.6 and 7.8 g/ha; for post-emergence activity against ladiesthumb: application rates of 15.63 g/ha
From the text: as §1

velvet leaf [8] = test: greenhouse herbicidal test, pre-emergence treatment; assay type: in vivo; settings: for control of velvet leaf, pre-emergence method: application rates of 6.2 and 3.1 g/ha
From the text: as §2

common nightshade = test: as above; assay type: in vivo; settings: application rates of 62.5 and 31.2 g/ha
From the text: as §2

cleavers harrif = test: greenhouse herbicidal test, post-emergence treatment; assay type: in vivo; settings: application rates of 15.63 g/ha
From the text: as §1

[9] = application rates of 15.63 g/ha
[10] = application rates of 15.6 and 7.8 g/ha
[11] = application rates of 62.5 and 31.2 g/ha

SMILES: CNC(=O)NS(=O)(=O)c1cc(-n2c(=O)cc(C(F)(F)F)n(C)c2=O)c(F)cc1Cl [Compound 2.17]
post-emergence activity against Bengal commelina (Bengal commelina): very good
post-emergence activity against velvet leaf (velvet leaf [1]): very good
post-emergence activity against common lambsquarters (common lambsquarters [2]; [9]): very good

SMILES: CC(C)N(C(=O)NS(=O)(=O)c1cc(-n2c(=O)cc(C(F)(F)F)n(C)c2=O)c(F)cc1Cl)C(C)C [Compound 2.27]
post-emergence activity against pigweed (pigweed [3]; [9]): very good
post-emergence activity against common morning glory (common morning glory [4]; [9]): very good

SMILES: C#CC(C)N(C)C(=O)NS(=O)(=O)c1cc(-n2c(=O)cc(C(F)(F)F)n(C)c2=O)c(F)cc1Cl (stereo not drawn) [Compound 2.28]
post-emergence activity against pigweed (pigweed [3]; [9]): very good
post-emergence activity against common lambsquarters (common lambsquarters [2]; [9]): very good
post-emergence activity against common morning glory (common morning glory [4]; [9]): very good

SMILES: Cn1c(C(F)(F)F)cc(=O)n(-c2cc(S(=O)(=O)NC(=O)Nc3ccccc3)c(Cl)cc2F)c1=O [Compound 2.29]
post-emergence activity against pigweed (pigweed [3]; [10]): very good
post-emergence activity against common lambsquarters (common lambsquarters [2]; [10]): very good
post-emergence activity against common morning glory (common morning glory [4]; [10]): very good

SMILES: COC(=O)NS(=O)(=O)c1cc(-n2c(=O)cc(C(F)(F)F)n(C)c2=O)ccc1Cl [Compound 3.1]
pre-emergence activity against pigweed (pigweed [5]): very good
pre-emergence activity against common lambsquarters (common lambsquarters [6]): very good
pre-emergence activity against common morning glory (common morning glory [7]): very good
pre-emergence activity against wild buckwheat (wild buckwheat): very good

SMILES: COC(=O)NS(=O)(=O)c1cc(-n2c(=O)cc(C(F)(F)F)n(C)c2=O)c(F)cc1Cl [Compound 3.18]
pre-emergence activity against pigweed (pigweed [5]): very good
pre-emergence activity against common lambsquarters (common lambsquarters [6]): very good
pre-emergence activity against common morning glory (common morning glory [7]): very good
pre-emergence activity against wild buckwheat (wild buckwheat): very good

SMILES: CCOC(=O)NS(=O)(=O)c1cc(-n2c(=O)cc(C(F)(F)F)n(C)c2=O)c(F)cc1Cl [Compound 3.19]
post-emergence activity against pigweed (pigweed [3]; [10]): very good
post-emergence activity against common lambsquarters (common lambsquarters [2]; [10]): very good
post-emergence activity against common morning glory (common morning glory [4]; [10]): very good
post-emergence activity against ladysthumb (ladysthumb): very good

SMILES: CCCOC(=O)NS(=O)(=O)c1cc(-n2c(=O)cc(C(F)(F)F)n(C)c2=O)c(F)cc1Cl [Compound 3.20]
post-emergence activity against pigweed (pigweed [3]; [10]): very good
post-emergence activity against common lambsquarters (common lambsquarters [2]; [10]): very good
post-emergence activity against common morning glory (common morning glory [4]; [10]): very good
post-emergence activity against ladysthumb (ladysthumb): very good

SMILES: CCCCOC(=O)NS(=O)(=O)c1cc(-n2c(=O)cc(C(F)(F)F)n(C)c2=O)c(F)cc1Cl [Compound 3.22]
post-emergence activity against pigweed (pigweed [3]; [10]): very good
post-emergence activity against common lambsquarters (common lambsquarters [2]; [10]): very good
post-emergence activity against common morning glory (common morning glory [4]; [10]): very good
post-emergence activity against ladysthumb (ladysthumb): very good

SMILES: CC(C)COC(=O)NS(=O)(=O)c1cc(-n2c(=O)cc(C(F)(F)F)n(C)c2=O)c(F)cc1Cl [Compound 3.24]
control of pigweed, pre-emergence method (pigweed [5]): very good
control of velvet leaf, pre-emergence method (velvet leaf [8]): very good
control of common lambsquarters, pre-emergence method (common lambsquarters [6]): very good
control of morning glory, pre-emergence method (common morning glory [7]): very good

SMILES: CCCCCOC(=O)NS(=O)(=O)c1cc(-n2c(=O)cc(C(F)(F)F)n(C)c2=O)c(F)cc1Cl [Compound 3.26]
post-emergence activity against pigweed (pigweed [3]; [10]): very good
post-emergence activity against common lambsquarters (common lambsquarters [2]; [10]): very good
post-emergence activity against common morning glory (common morning glory [4]; [10]): very good

SMILES: Cn1c(C(F)(F)F)cc(=O)n(-c2cc(S(=O)(=O)NC(=O)OC3CCCC3)c(Cl)cc2F)c1=O [Compound 3.27]
post-emergence activity against pigweed (pigweed [3]; [10]): very good
post-emergence activity against common lambsquarters (common lambsquarters [2]; [10]): very good
post-emergence activity against common morning glory (common morning glory [4]; [10]): very good
post-emergence activity against ladysthumb (ladysthumb): very good

SMILES: Cn1c(C(F)(F)F)cc(=O)n(-c2cc(S(=O)(=O)NC(=O)OCc3ccccc3)c(Cl)cc2F)c1=O [Compound 3.32, Benzyl{2-chloro-4-fluoro-5-[3,6-dihydro-3-methyl-2,6-dioxo-4-trifluoromethyl-(2H)-pyrimidin-1-yl]phenyl}sulfonylcarbamate]
effectiveness against pigweed, pre-emergence method (pigweed [5]; [11]): very good
effectiveness against velvet leaf, pre-emergence method (velvet leaf [8]; [11]): very good
effectiveness against common lambsquarters, pre-emergence method (common lambsquarters [6]; [11]): very good
effectiveness against common nightshade, pre-emergence method (common nightshade): very good

SMILES: COC(=O)COC(=O)NS(=O)(=O)c1cc(-n2c(=O)cc(C(F)(F)F)n(C)c2=O)c(F)cc1Cl [Compound 3.41]
post-emergence activity against pigweed (pigweed [3]; [9]): very good
post-emergence activity against cleavers harrif (cleavers harrif): very good
post-emergence activity against ladiesthumb (ladysthumb): very good

SMILES: COCC(C)(C)OC(=O)NS(=O)(=O)c1cc(-n2c(=O)cc(C(F)(F)F)n(C)c2=O)c(F)cc1Cl [Compound 3.42]
post-emergence activity against velvet leaf (velvet leaf [1]): very good
post-emergence activity against common morning glory (common morning glory [4]; [9]): very good
post-emergence activity against ladiesthumb (ladysthumb): very good

melting point: 114 to 116 °C
SMILES: CC(C)C(=O)NS(=O)(=O)c1cc(-n2c(=O)cc(C(F)(F)F)n(C)c2=O)ccc1Cl [Compound 4.5, N-isobutynyl-[2-chloro-5-(3,6-dihydro-3-methyl-2,6-dioxo-4-trifluoromethyl-1-(2H)-pyrimidinyl)]benzenesulfonamide]

SMILES: CCC(=O)NS(=O)(=O)c1cc(-n2c(=O)cc(C(F)(F)F)n(C)c2=O)c(F)cc1Cl [Compound 4.14]
post-emergence activity against pigweed (pigweed [3]; [9]): very good
post-emergence activity against cleavers harrif (cleavers harrif): very good
post-emergence activity against ladiesthumb (ladysthumb): very good

SMILES: CC(C)C(=O)NS(=O)(=O)c1cc(-n2c(=O)cc(C(F)(F)F)n(C)c2=O)c(F)cc1Cl [Compound 4.16]
control of pigweed, pre-emergence method (pigweed [5]): very good
control of velvet leaf, pre-emergence method (velvet leaf [8]): very good
control of common lambsquarters, pre-emergence method (common lambsquarters [6]): very good
control of morning glory, pre-emergence method (common morning glory [7]): very good
